Holding throughout (assay): SelectScreen Kinase Profiling, single point inhibition and IC50 for off-target kinases
Holding throughout (format): biochemical

Assay [1] addresses T1, off-target kinases (Homo sapiens, UniProt O15264).
T1 sequence (O15264 1-365): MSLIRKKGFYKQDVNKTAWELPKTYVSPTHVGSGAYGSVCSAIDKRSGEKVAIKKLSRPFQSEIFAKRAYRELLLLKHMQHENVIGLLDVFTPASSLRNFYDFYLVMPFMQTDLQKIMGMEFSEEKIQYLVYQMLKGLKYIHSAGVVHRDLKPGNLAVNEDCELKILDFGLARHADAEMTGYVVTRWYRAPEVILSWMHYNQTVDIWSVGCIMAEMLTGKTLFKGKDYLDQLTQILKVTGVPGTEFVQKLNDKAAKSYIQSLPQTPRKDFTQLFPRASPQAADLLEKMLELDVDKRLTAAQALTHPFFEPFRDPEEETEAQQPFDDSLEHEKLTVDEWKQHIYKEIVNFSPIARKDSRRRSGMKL
Conditions: MAPK13 (p38 delta), ZLYTE, ATP Km app.

The target in assay [2] is off-target kinases (Homo sapiens, UniProt P53671). The conditions noted are these: LIMK2, LanthaScreen Binding.
Sequence of off-target kinases (Homo sapiens, UniProt P53671) (P53671 whole entry): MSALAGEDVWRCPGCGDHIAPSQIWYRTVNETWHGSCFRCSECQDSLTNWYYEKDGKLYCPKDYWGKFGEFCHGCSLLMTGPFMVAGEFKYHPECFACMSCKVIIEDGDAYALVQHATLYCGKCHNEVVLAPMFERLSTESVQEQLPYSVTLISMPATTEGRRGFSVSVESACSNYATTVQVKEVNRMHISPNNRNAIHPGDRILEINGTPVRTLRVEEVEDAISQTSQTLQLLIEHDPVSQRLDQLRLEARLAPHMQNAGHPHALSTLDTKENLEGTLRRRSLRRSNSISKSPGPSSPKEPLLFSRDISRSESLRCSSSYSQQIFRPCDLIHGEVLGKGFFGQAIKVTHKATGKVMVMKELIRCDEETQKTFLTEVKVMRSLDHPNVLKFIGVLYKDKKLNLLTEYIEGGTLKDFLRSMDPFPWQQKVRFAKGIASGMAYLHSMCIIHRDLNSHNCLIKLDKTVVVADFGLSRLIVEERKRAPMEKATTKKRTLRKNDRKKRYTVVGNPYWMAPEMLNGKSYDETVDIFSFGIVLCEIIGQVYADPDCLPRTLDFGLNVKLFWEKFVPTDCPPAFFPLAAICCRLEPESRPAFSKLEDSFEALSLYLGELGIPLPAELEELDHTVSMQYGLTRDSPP
In assay [3] the target is off-target kinases (Homo sapiens, UniProt Q02763, Y1108F). The conditions noted are these: TEK (TIE2) Y1108F, LanthaScreen Binding. Background: TR-FRET usually uses a lanthanide donor and a delayed reading to cut background.
Sequence of off-target kinases (Homo sapiens, UniProt Q02763, Y1108F) (Q02763 23-1124 Y1108F): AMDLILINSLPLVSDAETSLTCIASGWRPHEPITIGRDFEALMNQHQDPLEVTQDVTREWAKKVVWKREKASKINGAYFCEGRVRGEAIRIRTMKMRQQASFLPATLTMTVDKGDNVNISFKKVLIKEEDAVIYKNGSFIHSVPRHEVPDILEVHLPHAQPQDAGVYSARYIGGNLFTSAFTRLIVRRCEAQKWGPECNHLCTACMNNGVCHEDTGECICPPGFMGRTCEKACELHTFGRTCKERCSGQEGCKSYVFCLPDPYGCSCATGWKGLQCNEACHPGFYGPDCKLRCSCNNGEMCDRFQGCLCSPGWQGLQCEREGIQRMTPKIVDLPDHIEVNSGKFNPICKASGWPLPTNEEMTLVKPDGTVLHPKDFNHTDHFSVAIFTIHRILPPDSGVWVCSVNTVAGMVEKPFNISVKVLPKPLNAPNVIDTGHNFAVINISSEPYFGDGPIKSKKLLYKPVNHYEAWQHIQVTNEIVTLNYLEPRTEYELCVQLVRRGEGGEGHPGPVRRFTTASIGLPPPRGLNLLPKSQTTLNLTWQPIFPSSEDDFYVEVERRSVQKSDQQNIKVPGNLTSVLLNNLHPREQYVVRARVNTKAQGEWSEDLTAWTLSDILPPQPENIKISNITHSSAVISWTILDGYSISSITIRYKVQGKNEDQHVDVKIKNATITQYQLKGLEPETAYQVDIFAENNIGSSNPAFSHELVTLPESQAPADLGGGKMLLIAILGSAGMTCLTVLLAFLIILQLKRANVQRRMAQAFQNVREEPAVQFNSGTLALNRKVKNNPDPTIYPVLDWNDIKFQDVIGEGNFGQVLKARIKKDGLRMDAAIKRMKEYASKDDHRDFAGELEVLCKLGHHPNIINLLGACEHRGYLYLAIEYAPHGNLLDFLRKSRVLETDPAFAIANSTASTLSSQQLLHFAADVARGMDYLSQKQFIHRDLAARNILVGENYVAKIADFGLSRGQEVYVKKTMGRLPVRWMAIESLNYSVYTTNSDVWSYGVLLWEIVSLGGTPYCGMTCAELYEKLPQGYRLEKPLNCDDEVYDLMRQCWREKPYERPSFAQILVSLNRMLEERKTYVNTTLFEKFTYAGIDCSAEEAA
For assay [4], the target named is off-target kinases (Homo sapiens, UniProt Q13627). The conditions noted are these: DYRK1A, ZLYTE, ATP Km app.
The target of assay [5] is off-target kinases (Homo sapiens, UniProt Q9BUB5). The conditions noted are these: MKNK1 (MNK1), ATP Km app, ZLYTE.
Sequence of off-target kinases (Homo sapiens, UniProt Q9BUB5) (Q9BUB5 whole entry): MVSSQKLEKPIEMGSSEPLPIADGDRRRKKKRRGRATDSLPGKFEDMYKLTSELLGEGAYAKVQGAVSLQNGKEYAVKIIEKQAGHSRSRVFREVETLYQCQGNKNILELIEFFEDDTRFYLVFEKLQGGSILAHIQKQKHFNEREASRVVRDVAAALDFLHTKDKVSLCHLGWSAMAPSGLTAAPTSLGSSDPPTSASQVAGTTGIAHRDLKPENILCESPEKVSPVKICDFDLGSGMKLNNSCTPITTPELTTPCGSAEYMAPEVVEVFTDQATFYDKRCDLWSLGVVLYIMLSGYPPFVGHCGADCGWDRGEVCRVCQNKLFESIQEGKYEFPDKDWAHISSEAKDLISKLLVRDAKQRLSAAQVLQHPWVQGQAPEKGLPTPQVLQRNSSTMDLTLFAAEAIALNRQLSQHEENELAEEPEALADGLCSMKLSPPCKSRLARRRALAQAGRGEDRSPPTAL
For assay [6], the target named is T2, off-target kinases (Homo sapiens, UniProt Q9UKI8).
T2 sequence (Q9UKI8 1-766): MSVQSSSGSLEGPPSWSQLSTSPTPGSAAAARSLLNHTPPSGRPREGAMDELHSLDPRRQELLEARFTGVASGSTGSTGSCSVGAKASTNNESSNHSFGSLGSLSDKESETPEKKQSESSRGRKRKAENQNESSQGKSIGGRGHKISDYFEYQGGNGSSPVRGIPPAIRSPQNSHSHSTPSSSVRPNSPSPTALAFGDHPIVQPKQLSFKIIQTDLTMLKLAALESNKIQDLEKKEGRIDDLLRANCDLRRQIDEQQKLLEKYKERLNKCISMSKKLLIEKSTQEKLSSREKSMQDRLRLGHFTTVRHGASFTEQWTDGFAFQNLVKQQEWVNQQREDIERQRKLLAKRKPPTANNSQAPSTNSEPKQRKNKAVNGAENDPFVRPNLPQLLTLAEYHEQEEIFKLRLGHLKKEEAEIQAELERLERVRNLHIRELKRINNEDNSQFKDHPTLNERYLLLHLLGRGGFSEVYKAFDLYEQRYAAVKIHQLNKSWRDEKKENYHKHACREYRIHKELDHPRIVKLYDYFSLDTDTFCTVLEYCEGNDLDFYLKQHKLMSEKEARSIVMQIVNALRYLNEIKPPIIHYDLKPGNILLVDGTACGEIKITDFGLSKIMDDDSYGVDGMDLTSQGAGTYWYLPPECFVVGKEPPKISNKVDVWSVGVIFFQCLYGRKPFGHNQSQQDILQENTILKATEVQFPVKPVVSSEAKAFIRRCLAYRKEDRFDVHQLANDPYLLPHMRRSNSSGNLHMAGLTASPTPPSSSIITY
The conditions noted are these: TLK1, LanthaScreen Binding.

The target of assay [7] is off-target kinases (Homo sapiens, UniProt Q9UM73, F1174L). The conditions noted are these: ALK F1174L, mutant y, LanthaScreen Binding.
Sequence of off-target kinases (Homo sapiens, UniProt Q9UM73, F1174L) (Q9UM73 19-1620 F1174L): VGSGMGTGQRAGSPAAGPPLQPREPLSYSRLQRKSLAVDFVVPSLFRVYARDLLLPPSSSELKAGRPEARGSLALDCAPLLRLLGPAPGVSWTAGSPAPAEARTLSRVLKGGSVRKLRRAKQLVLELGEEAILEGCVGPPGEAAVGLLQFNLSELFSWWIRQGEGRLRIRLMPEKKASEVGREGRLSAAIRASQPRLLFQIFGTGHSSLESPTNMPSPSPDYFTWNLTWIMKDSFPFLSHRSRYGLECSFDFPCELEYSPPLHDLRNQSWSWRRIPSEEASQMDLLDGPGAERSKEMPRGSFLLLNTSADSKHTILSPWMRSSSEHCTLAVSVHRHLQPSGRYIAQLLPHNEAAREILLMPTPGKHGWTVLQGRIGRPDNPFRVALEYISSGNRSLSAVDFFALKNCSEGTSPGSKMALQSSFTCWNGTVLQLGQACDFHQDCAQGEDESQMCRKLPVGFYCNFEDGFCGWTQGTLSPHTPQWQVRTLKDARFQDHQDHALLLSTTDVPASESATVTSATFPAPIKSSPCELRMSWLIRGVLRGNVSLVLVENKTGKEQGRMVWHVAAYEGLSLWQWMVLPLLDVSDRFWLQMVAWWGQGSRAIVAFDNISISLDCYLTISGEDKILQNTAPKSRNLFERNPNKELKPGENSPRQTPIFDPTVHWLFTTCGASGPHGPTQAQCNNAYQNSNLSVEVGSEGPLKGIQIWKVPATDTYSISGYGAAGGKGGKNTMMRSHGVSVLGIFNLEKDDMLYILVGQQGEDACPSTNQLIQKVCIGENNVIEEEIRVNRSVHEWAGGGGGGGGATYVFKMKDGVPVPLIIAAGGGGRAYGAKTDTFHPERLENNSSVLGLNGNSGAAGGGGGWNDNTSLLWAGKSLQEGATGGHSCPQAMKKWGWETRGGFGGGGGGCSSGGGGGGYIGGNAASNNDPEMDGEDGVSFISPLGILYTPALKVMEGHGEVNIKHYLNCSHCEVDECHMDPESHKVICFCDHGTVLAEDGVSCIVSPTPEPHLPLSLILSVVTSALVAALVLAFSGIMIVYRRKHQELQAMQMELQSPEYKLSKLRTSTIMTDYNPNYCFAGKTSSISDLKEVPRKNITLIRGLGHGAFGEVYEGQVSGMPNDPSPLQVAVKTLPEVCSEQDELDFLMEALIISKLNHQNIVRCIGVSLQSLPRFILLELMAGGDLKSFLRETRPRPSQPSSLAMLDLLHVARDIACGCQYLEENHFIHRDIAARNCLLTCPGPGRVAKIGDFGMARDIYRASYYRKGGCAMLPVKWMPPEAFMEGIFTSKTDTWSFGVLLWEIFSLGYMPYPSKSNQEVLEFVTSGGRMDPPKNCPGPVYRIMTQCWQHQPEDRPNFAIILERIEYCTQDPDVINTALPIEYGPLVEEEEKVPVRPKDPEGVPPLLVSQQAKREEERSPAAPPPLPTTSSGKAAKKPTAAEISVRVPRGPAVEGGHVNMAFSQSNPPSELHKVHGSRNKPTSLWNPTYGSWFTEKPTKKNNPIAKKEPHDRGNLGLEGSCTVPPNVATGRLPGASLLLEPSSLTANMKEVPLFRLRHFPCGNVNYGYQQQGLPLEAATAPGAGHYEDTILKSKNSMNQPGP

Where two headings read alike, the source gives them in different places.

Consider `N#Cc1cc(-c2ncnc(Nc3ccc(N4CCN(C5COC5)CC4)cc3)n2)ccc1OC1CCOCC1` [Compound 1, 5-(4-((4-(4-(oxetan-3-yl)piperazin-1-yl)phenyl)amino)-1,3,5-triazin-2-yl)-2-((tetrahydro-2H-pyran-4-yl)oxy)benzonitrile], for which the inhibition on off-target kinases [1] (read-out: % Inhibition 1) amounted to 7%; at off-target kinases [1] (read-out: % Inhibition 2), 9%; at off-target kinases [1] (read-out: % Inhibition Avg), 8%; at off-target kinases [2] (read-out: % Inhibition 1), 14%; on off-target kinases [2] (read-out: % Inhibition 2), 19%; on off-target kinases [2] (read-out: % Inhibition Avg) it was 17%. For the same molecule, the inhibition amounted to 53% at off-target kinases [3] (read-out: % Inhibition 1); 52% at off-target kinases [3] (read-out: % Inhibition 2); 53% at off-target kinases [3] (read-out: % Inhibition Avg); 30% at off-target kinases [4] (read-out: % Inhibition 1); 27% at off-target kinases [4] (read-out: % Inhibition 2); 28% on off-target kinases [4] (read-out: % Inhibition Avg). Further, the inhibition amounted to 99% at off-target kinases [5] (read-out: % Inhibition 1); 100% at off-target kinases [5] (read-out: % Inhibition 2); 100% at off-target kinases [5] (read-out: % Inhibition Avg); 13% on off-target kinases [6] (read-out: % Inhibition 1); 17% at off-target kinases [6] (read-out: % Inhibition 2); 15% on off-target kinases [6] (read-out: % Inhibition Avg). In addition, the figures for the inhibition at off-target kinases [7] (read-out: % Inhibition 1), at off-target kinases [7] (read-out: % Inhibition 2) and on off-target kinases [7] (read-out: % Inhibition Avg) were 12%, 14% and 13%, respectively.

Broadly, the inhibition is the change of the read-out against control, counted positive when it falls.
